Values of other authors as cited in patent publication US20140248345A1 (Merck Sharp & Dohme Corp., priority 2011, published 2014).

Tested on: human Type 2 diabetics
Details: oral administration

| Compound | HbA1c levels | fasting glucose and postprandial glucose excursion |
| --- | --- | --- |
| N[C@@H](CC(=O)N1CCn2c(nnc2C(F)(F)F)C1)Cc1cc(F)c(F)cc1F [sitagliptin, (2R)-4-oxo-4-[3-(trifluoromethyl)-5,6-dihydro[1,2,4]triazolo[4,3-a]pyrazin-7(8H)-yl]-1-(2,4,5-trifluorophenyl)butan-2-amine] | significantly reduced | reduce fasting glucose and postprandial glucose excursion |
| N#C[C@@H]1CCCN1C(=O)CNC12CC3CC(CC(O)(C3)C1)C2 [vildagliptin, (S)-1-[(3-hydroxy-1-adamantyl)amino]acetyl-2-cyano-pyrrolidine] | significantly reduced | reduce fasting glucose and postprandial glucose excursion |
